Source: patent publication US8039670B2, “Analogs of alpha galactosyceramide and uses thereof” (Ludwig Institute for Cancer Research, priority 2005, dated 2011)

How the values were obtained:
[1] = tested on: Melan A-specific CD8^+ T cells; test: Expansion of Melan-A26-35 specific CD8+ T cells in human PBMC/PBL cultures (tetramer); format: cell-based; details: for stimulation of antigen specific CTL responses in vitro: Example B, day 10, compared with αGal-Cer; for expansion of Melan-A26-35 specific T cells: human PBMC/PBL, FIG. 8
Protocol: Flow cytometry of day 10-15 cultures of PBMCs co-cultured with autologous irradiated APCs, pulsed with Melan-A26-35 peptide were stained with the tetrameter and anti-CD8^+-FITC.
In these experiments, T cell expansion was measured, by pulsing human DCs from PBLs with 100 nM of the known, immunogenic peptide MelanA26-35, […]. The peptide was added to the DCs together with syngeneic PBLs from the same donor. To detail these experiments more fully, samples of DCs were irradiated with 3000 rads followed by a 3 hour pulse with the peptide, in serum free medium.
The cells were then washed thoroughly and incubated with autologous, PBLs, at a 1:10 ratio, in RPMI 1640/5% human serum. Recombinant human IL-2 was added at 10 U/ml from day 4 to day 7. At day 10, following the addition of the PBLs, cells were analyzed. Cultured cells were stained with anti-CD8 and A2/MelanA25-35 tetramer. The percentage of MelanA specific CD8 T cells out of total CD8 positive cells was measured by FACS analysis.

[2] = tested on: IL-4 and IFN-γ; test: Serum cytokines after i.v. injection into mice (ELISA); format: in vivo, C57BL/6 mice; details: for cytokine release in serum (IL-4, IFN-γ, IL-12p40/70): wild type mice, 1 μg i.v., 2, 6 and 18-24 h
Protocol: C57BL/6 or iNKT^−/− mice were injected i.v. with 1 μg of vehicle, α-GalCer, analog or 25 μg MPL. Twenty hours after injection splenocytes were stained with antibodies against CD11c, B220 and CD86 and analyzed by flow cytometry. (A) Maturation was assessed by the upregulation of CD86 at the cell surface, gating on DC (CD11c^+). Mean fluorescence intensity for each histogram is indicated. These are representative profiles of two independent experiments. 2, 6 and 18-24 h after injection as described, the mice were bled and the serum tested with ELISA for the presence of (B) IL-4 and (C) IFN-γ released in response to the analog.
Stimulation of iNKT cells by α-GalCer in the context of CD1d rapidly induces release of significant levels of a number of cytokines including IFN-γ and IL-4 (Burdin, Brossay et al, J Immunol, 1998, 161; 3271-81), IL-3 and GM-CSF (Leite-de-Moraes, Lisbonne et al, Eur J Immunol, 2002, 32; 1897-904) with other downstream cell-types including DC (Kitamura, Iwakabe et al, J Exp Med, 1999, 189; 1121-8) and NK cells (Carnaud, Lee et al, J Immunol, 1999, 163; 4647-50) being activated.

[3] = tested on: p40 form of IL-12; test: Example A: IL-12 p40 ELISA as indication of DC stimulation; format: cell-based, human
[4] = tested on: IL-12 p70 protein; test: Example F: IL-12 p70 in tail blood six hours after injection (ELISA); format: in vivo; details: 1 μg or 10 μg
Protocol: These experiments were performed to determine the effect of selected compounds of the invention in stimulating the production of IL-12 production in subject animals. The animals received 1 μg or 10 μg of threitol, glycerol or Gal-Cer. One group of animals also received 50 μg of MPL. Six hours following injection, tail blood samples were collected and the IL-12 p70 protein was determined using an ELISA all in accordance with standard procedures.

[5] = molecular target: T1, human invariant Vα24^+/Vβ11^+ TCR binding to hCD1d-lipid complex (Homo sapiens, UniProt P15813); test: Surface plasmon resonance (Biacore) of soluble iNKT TCR binding to hCD1d monomers loaded with analogs; details: for Kd: equilibrium binding, read-out: Kd of the TCR binding to the monomer
T1 construct: soluble human CD1d molecules; made in house
Protocol: Affinity and kinetics of iNKT TCR binding to hCD1d complexed with α-GalCer or OCH. Increasing concentrations from 0.4 μM to 194 μM (two-fold dilution) of iNKT TCR were injected for 5 seconds over the indicated hCD1d-GSL complexes. The binding responses of 5 concentrations are shown superimposed. The panels on the right show binding response at equilibrium.
The affinities of a soluble NKT cell TCR for human CD1d molecules refolded with different analogs of α-GalCer were measured. Equilibrium binding and kinetic measurements respectively were made for α-GalCer (A and B), threitolceramide (C and D), 4S-threitolceramide (E and F), 4R-threitolceramide (G and H). The Kd values (μM) were calculated from equilibrium binding. The Kon values shown were calculated from Koff and Kd.
We then assessed whether the length of the acyl and sphingosine chains could affect the affinity of iNKT TCR binding to glycolipid-CD1d complex. We refolded Vα24 and Vβ11 chains of the iNKT TCR as previously described (Gadola, Koch et al, J Exp Med, 2006, 203; 699-710) and used the purified and refolded iNKT TCR in surface plasmon resonance studies against immobilized biotinylated CD1d monomers loaded with either α-GalCer or OCH.
To characterize the affinity of analogs of α-GalCer, biotinylated hCD1d monomers were generated using previously described protocols (Karadimitris, Gadola et al, Proc Natl Acad Sci USA, 2001, 98; 3294-8) bound to the different analogs. Surface plasmon resonance (Biacore) analysis was performed using a soluble disulphide-linked human invariant Vα24^+/Vβ11^+ TCR (Gadola, Koch et al, J Exp Med, 2006, 203; 699-710) to measure the equilibrium dissociation constants (Kd) of binding of the TCR to different monomers (FIG. 3).

[6] = molecular target: human CD1d (Homo sapiens, UniProt P15813); details: acyl and sphingosine chains in A′ and C′ pockets; cited from earlier work
[7] = tested on: iNKT cell clone; test: Cytokine release from iNKT cell clone stimulated with analog-pulsed C1R-human CD1d cells; format: cell-based
Protocol: FIG. 9 Inositol-based α-GalCer derivatives are functional in vitro. Human monocyte-derived DC were pulsed with 150 ng of different inositol analogs and co-cultured with iNKT cells for 24 h. […] Numbers indicate the mean fluorescence intensity of the histogram gated on CD11c^+ cells. 6-Deoxy and 6-Sulfono-myo-inositolceramide induce significant (B) IL-12p40 and (C) IFN-γ production by DC and iNKT cells respectively in the supernatants of co-cultured DC and iNKT cells. […] Release of (D) IFN-g and (E) IL-4 from iNKT cells after 24 h in culture with C1R-human CD1d cells pulsed with α-GalCer, 6-Deoxy- or 6-Sulfono-myo-inositolceramide.
The three inositol compounds were titrated on C1R cells expressing human CD1d and used to stimulate an iNKT cell clone.

Sequence of human CD1d (P15813 20-301 limits assumed): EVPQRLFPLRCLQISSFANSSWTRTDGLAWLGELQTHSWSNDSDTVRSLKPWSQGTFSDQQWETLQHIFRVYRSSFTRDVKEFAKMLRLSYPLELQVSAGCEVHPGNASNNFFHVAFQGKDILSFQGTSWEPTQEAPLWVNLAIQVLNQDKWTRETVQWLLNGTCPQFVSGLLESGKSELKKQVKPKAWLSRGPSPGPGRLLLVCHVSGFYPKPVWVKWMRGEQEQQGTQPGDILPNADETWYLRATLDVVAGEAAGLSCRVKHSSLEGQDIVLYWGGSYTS
Sequence of human CD1d (P61769 21-119 partner): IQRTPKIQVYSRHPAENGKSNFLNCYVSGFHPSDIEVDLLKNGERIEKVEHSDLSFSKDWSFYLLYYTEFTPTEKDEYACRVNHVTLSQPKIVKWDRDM

| SMILES | stimulation of antigen specific CTL responses in vitro [1] | cytokine release in serum (IL-4, IFN-γ, IL-12p40/70) [2] | IL-12 potency, fold less potent than Compound 3 [3] | expansion of Melan-A26-35 specific T cells ([1]; listed as threitol-ceramide) | expansion of Melan-A26-35 specific T cells ([1]; listed as threitolceramide) | skewing of cytokine response to Th2 ([2]; compared with OCH) | potency of cytokine induction compared with α-GalCer ([2]; equivalent doses) | IL-12 potency relative to αGal-Cer [3] | IL-12/p70 secretion [4] | Kd [5] [µM] | rate of dissociation (Koff) between the TCR and the monomer ([5]; kinetic measurement) [s⁻¹] | shape complementarity (Sc) [6] | concentration at which IFN-γ and IL-4 approach a plateau [7] [ng/mL] | koff ([5]; kinetic measurement, read-out: rate of dissociation (Koff) between the TCR and the monomer) [s⁻¹] |
| --- | --- | --- | --- | --- | --- | --- | --- | --- | --- | --- | --- | --- | --- | --- |
| CCCCCCCCCCCCCCCCCCCCCCCCCC(=O)N[C@@H](COC[C@@H](O)CO)[C@H](O)[C@H](O)CCCCCCCCCCCCCC [Compound 2, Glycerol Ceramide] | more potent stimulators of antigen specific CTL responses, in vitro, than αGal-Cer | did not induce any detectable cytokine release | approximately 1000 fold | – | – | – | – | – | – | – | – | – | – | – |
| CCCCCCCCCCCCCCCCCCCCCCCCCC(=O)N[C@@H](COC[C@H](O)[C@@H](O)CO)[C@H](O)[C@H](O)CCCCCCCCCCCCCC [Compound 3, Threitol Ceramide] | more potent stimulators of antigen specific CTL responses, in vitro, than αGal-Cer | detected in the serum with a similar time-course to that seen with α-GalCer | – | superior than glycerol-ceramide | at least as effective as with DC pulsed with α-GalCer | Neither compound showed a skewed Th2 cytokine response | less potent than α-GalCer at equivalent doses | approximately 50% | Dose dependent increases in IL-12/p70 secretion | 5.78 | 1.04 | – | – | – |
| CCCCCCCCCCCCCCCCCCCCCCCCCC(=O)N[C@@H](CO[C@H]1OC(CO)[C@H](O)C(O)C1O)[C@H](O)[C@H](O)CCCCCCCCCCCCCC (stereo partly drawn) [α-GalCer, α galactosylceramide, reference compound] | – | – | – | – | – | – | – | – | – | 1.29 | – | 0.61 | 200 | 0.37 |
